# Data reported in paper PMC12492365, “Drug Interaction of Dasatinib with Thymoquinone: A Pharmacokinetic Study in Rats” (International Journal of Medical Sciences, 2025).
# Where two headings read alike, the source gives them in different places.
# Key:
# CYP3A2 = assay: Western blot of CYP3A2 protein expression in liver and lumen tissues; format: in vivo, Wistar rats; settings: for Elevation of CYP3A2 protein expression: DAS 25 mg/kg p.o. vs normal controls; for Suppression of CYP3A2 upregulation: TQ 40 mg/kg p.o. seven days in DAS-treated rats vs DAS group
# Method: The adult male Wistar rats (204-226 g) were procured from the College of Pharmacy Animal Care and Use Facility, King Saud University, Riyadh, Saudi Arabia. The animals were hold in polycarbonate rat cages, with 12h light/dark cycle at 25 ± 2 °C. All groups were allowed ad libitum before the study. This study was conducted following the ethical guidelines approved by the facility and the study was approved by the King Saud University College of Pharmacy Research Ethics Committee (KSU-SE-21-58). Overnight fasted animals (n=24) were divided into four groups (n=6 per group). Group I (normal controls) and Group II were administered normal saline by oral gavage for seven consecutive days. […] Group IV received TQ (40 mg/kg/day) by oral gavage for seven consecutive days. […] The collected blood was centrifuged at 3000 ×g for 10 minutes to separate the plasma, which was then collected and stored in Eppendorf tubes for UHPLC-MS/MS analysis. After completion of the study, the animals were euthanized, and liver and lumen tissues were collected for Western blot analysis. […] Briefly, DAS and ibrutinib (IBR;(internal standard, IS) were separated on an Acquity BEH C18 column. Prior to sample analysis, the method underwent validation for precision and accuracy. A non-compartmental analysis was empoyed to calculate the PK parameters of DAS using the PK Solver software (version 1.01). The liver and intestine tissues were homogenized in RIPA lysis buffer and incubated for 30 minutes, followed by centrifugation at 10,000 rpm for 20 minutes at 4 °C. The supernatants were then collected and stored at -20 °C. Total protein content was determined using the bicinchoninic acid (BCA) assay. Protein expression of CYP3A2, Pgp, and BCRP proteins were analyzed according to previously published methods, [17], [34], [35]. All data are expressed as the mean ± SEM.
# BCRP = assay: Western blot of BCRP protein expression in liver and lumen tissues; format: in vivo, Wistar rats; settings: for Induction of BCRP protein expression: oral DAS vs untreated animals; for Inhibition of BCRP protein expression: TQ pretreatment in the DAS treatment group
# Method: (§1) The adult male Wistar rats (204-226 g) were procured from the College of Pharmacy Animal Care and Use Facility, King Saud University, Riyadh, Saudi Arabia. The animals were hold in polycarbonate rat cages, with 12h light/dark cycle at 25 ± 2 °C. All groups were allowed ad libitum before the study. This study was conducted following the ethical guidelines approved by the facility and the study was approved by the King Saud University College of Pharmacy Research Ethics Committee (KSU-SE-21-58). Overnight fasted animals (n=24) were divided into four groups (n=6 per group). Group I (normal controls) and Group II were administered normal saline by oral gavage for seven consecutive days. On the seventh day, Group II received a single dose of DAS (25 mg/kg, p.o.) via oral gavage. Group III received TQ (40 mg/kg, p.o.) via oral gavage for seven days, and two hours after the final TQ dose, DAS (25 mg/kg, p.o.) was administered by oral gavage. Group IV received TQ (40 mg/kg/day) by oral gavage for seven consecutive days. For the PK study, blood samples were collected via a tail vein in heparinized vacutainers at various time intervals (i.e., 0, 0.5, 1, 2, 4, 6, 8, 10, 12 h post DAS dosing). The collected blood was centrifuged at 3000 ×g for 10 minutes to separate the plasma, which was then collected and stored in Eppendorf tubes for UHPLC-MS/MS analysis. After completion of the study, the animals were euthanized, and liver and lumen tissues were collected for Western blot analysis. DAS concentrations in plasma samples were determined using an UHPLC-MS/MS method according to a previously described method. Briefly, DAS and ibrutinib (IBR;(internal standard, IS) were separated on an Acquity BEH C18 column. Prior to sample analysis, the method underwent validation for precision and accuracy. A non-compartmental analysis was empoyed to calculate the PK parameters of DAS using the PK Solver software (version 1.01).
# (§2) The liver and intestine tissues were homogenized in RIPA lysis buffer and incubated for 30 minutes, followed by centrifugation at 10,000 rpm for 20 minutes at 4 °C. The supernatants were then collected and stored at -20 °C. Total protein content was determined using the bicinchoninic acid (BCA) assay. Protein expression of CYP3A2, Pgp, and BCRP proteins were analyzed according to previously published methods, [17], [34], [35].
# (§3) All data are expressed as the mean ± SEM. The pharmacokinetic and protein expression data were compared using one-way analysis of variance followed by Dunnett's test and a p value of ≤0.05 was used for statistical significance.
# Pgp = assay: Western blot of Pgp protein expression in liver and lumen tissues; format: in vivo, Wistar rats; settings: for Increase of Pgp expression: DAS 25 mg/kg p.o. vs untreated animals; for Suppression of Pgp expression: TQ pretreatment in DAS-treated rats vs DAS group
# Method: as §1, §2, §3
# [1] = Pharmacokinetic study of oral dasatinib with and without TQ pretreatment, plasma UHPLC-MS/MS, non-compartmental analysis; format: in vivo, Wistar rats; settings: rats
# Method: as §1, §3
# rats = settings: 30 mg/kg, no reference given; cited from earlier work
# wistar rats = test system: wistar rats; set-up: method as in PMID 23440704, PMID 32273798; settings: ref [46], [47], cited from earlier work
# [2] = DAS 25 mg/kg p.o. alone, mean ±SEM
# [3] = DAS+TQ vs DAS alone, positive = increase
# [4] = TQ pretreatment vs control (DAS alone), given as decrease
# [5] = male, Wistar, rat, plasma, po, DAS 25 mg/kg p.o. alone, mean ±SEM
smiles,measurement,setting,value
"Cc1nc(Nc2ncc(C(=O)Nc3c(C)cccc3Cl)s2)cc(N2CCN(CCO)CC2)n1 [DAS, Dasatinib]",Elevation of CYP3A2 protein expression,CYP3A2; liver,91.84%
same,Elevation of CYP3A2 protein expression,CYP3A2; lumen,93.47%
same,Induction of BCRP protein expression,BCRP; liver,74.82%
same,Induction of BCRP protein expression,BCRP; lumen,76.05%
same,Increase of Pgp expression,Pgp; liver,75.62%
same,Increase of Pgp expression,Pgp; lumen,77.19%
same,AUMC0-∞,[1]; [2],29259.52 ±3397.55 ng/ml*h^2
same,CL,[1]; [2],0.01 ±0.00 (mg/kg)/(ng/ml)/h
same,Vd,[1]; [2],0.11 ±0.00 (mg/kg)/(ng/ml)
same,% Change in AUC0-t of DAS,[1]; [3],166.53%
same,% Change in AUMC0-∞ of DAS,[1]; [3],0.34%
same,% Change in Cmax of DAS,[1]; [3],213.26%
same,% Change in Kel of DAS,[1]; [3],93.85%
same,% Change in Tmax of DAS,[1]; [3],83.33%
same,Decrease (reduction) in CL of DAS,[1]; [4],36.35%
same,Decrease (reduction) in Vd of DAS,[1]; [4],67.70%
same,Decrease in MRT of DAS,[1]; [4],49.12%
same,AUC(0-inf),[1]; [5],2500 ± 113 ng·h/mL
same,AUC(0-t),[1]; [5],1610 ± 28.9 ng·h/mL
same,Cmax,[1]; [5],246 ± 3.34 ng/mL
same,MRT,[1]; [5],11.5 ± 0.81 h
same,half-life,[1]; [5],7.77 ± 0.65 h
same,k el,[1]; [5],2.5e-05 s⁻¹
same,Tolerability in acute toxicity studies,rats,well tolerated
"CC1=CC(=O)C(C(C)C)=CC1=O [TQ, 2-Methyl-5-(propan-2-yl)cyclohexa-2,5-diene-1,4-dione]",Effect on CYP3A2 expressions,CYP3A2; TQ alone 40 mg/kg/day seven days vs normal controls,did not significantly altered
same,Suppression of CYP3A2 upregulation,CYP3A2; liver,53.98%
same,Suppression of CYP3A2 upregulation,CYP3A2; lumen,40.30%
same,Effect on liver and lumen BCRP protein levels,BCRP; TQ treatment alone vs normal controls,no significant changes
same,Inhibition of BCRP protein expression,BCRP; liver,50.48%
same,Inhibition of BCRP protein expression,BCRP; lumen,48.46%
same,Effect on liver and lumen Pgp protein expressions,Pgp; TQ pretreatment alone vs untreated animals,did not affect
same,Suppression of Pgp expression,Pgp; liver,47.97%
same,Suppression of Pgp expression,Pgp; lumen,37.72%
same,maximum tolerated dose (MTD),"wistar rats; i.p. injection, female rats",15 mg/kg
same,maximum tolerated dose (MTD),"wistar rats; i.p. injection, male rats",22.5 mg/kg
same,maximum tolerated dose (MTD),"wistar rats; oral, both male and female rats",250 mg/kg
